# From US20240246935A1 (Plexium, Inc., priority 2021, published 2024)
# Legend:
# [1] = biological target: human E3 ligase component cereblon (CRBN) (Homo sapiens (Human), UniProt Q96SW2); experiment: Cereblon (CRBN) target engagement, NanoBRET TE Intracellular E3 Ligase Assay in transfected HEK-293T cells; conditions: read-out: CRBN Binding EC50
# Method: HEK293T cells were harvested ca. 75% confluent with trypsin and plated (500,000 cells/well) in a 6-well tissue culture plate in 2 mL of Dulbecco's Modified Eagle Medium (DMEM)+10% Fetal Bovine Serum (FBS) and incubated overnight at 37° C.
# The NanoLuc-CRBN fusion vector (Nluc-CRBN; Promega) contains the coding region of human E3 ligase component cereblon (CRBN) fused to the C-terminus of the NanoLuc luciferase coding region. A mixture of 10 ng Nluc-CRBN and 990 ng DDB1 Expression Vector (Promega) was added to 125 μL Opti-Minimum Essential Medium (Opti-MEM™; Thermo Fisher) along with 2 μL P3000 reagent (Thermo Fisher) in a 1.5 mL epppendorf tube. This solution was added to Lipofectamine 3000 transfection reagent (5 μL; Thermo Fisher) in Opti-MEM (125 μL), mixed well, and incubated for 15 minutes at room temperature. The transfection mixture was added dropwise to cells and incubated overnight at 37° ° C., 5% CO2. Following transfection, cells were washed once with PBS, and trypsin (250 μL) was added and incubated 30-45 sec to dislodge cells. Complete media (2 mL) was added to resuspend cells to form a single cell suspension. Cells were centrifuged at 320×g for 5 min at room temperature, the supernatant was removed, and the cell pellet resuspended in Opti-MEM (3 mL; wash step repeated×2). After final resuspension in 5 mL Opti-MEM, cells were counted and resuspended at 200,000 cells/mL in Opti-MEM.
# Cereblon target engagement was monitored by Bioluminescence Resonance Energy Transfer (BRET) in transfected HEK-293T cells using the NanoBRET TE Intracellular E3 Ligase Assay (Promega). Briefly, 384-well plates (white opaque plates, Corning 3574, low binding surface) were seeded with transfected HEK-293T cells (38 μL/well). 2 μL of 10 μM CRBN tracer (diluted 1:5 in Tracer Dilution Buffer) was added to each well. Plates were centrifuged at 320×g for 1 min at room temperature. Test compounds were added in a 11-point dilution series (typically 10 μM to […]) using a TECAN D300e Digital Dispenser. Plates were shaken for 2 minutes on a microplate shaker to mix compounds. Plates were centrifuged at 320×g for 1 min at room temperature, and subsequently incubated for 2 hours at 37° C.
# After incubation, plates were allowed to cool to room temperature for 15 minutes. 20 μL of 3× Complete NanoBRET™ Nano-Glo® Substrate plus Inhibitor Solution (Promega, 1:166 Substrate and 1:500 dilution of Extracellular NanoLuc® Inhibitor diluted in Opti-MEM) were added to each well. Plates were incubated with shaking at room temperature for 3 minutes covered with foil. Plates were read on a CLARIOstar microplate reader (BMG LabTech), measuring at 450 nm (donor emission) and 610 nm (acceptor emission). The IC50 values were determined by regression to best fit four-parameter logistic curves using GraphPad Prism.
# IKZF2 (Helios) = experiment: IKZF2 reporter degradation assay (HEK 293T IKZF2-mNeonGreen reporter cell line); assay type: cell-based, human; conditions: 1 μM compound, 24 hour incubation, HEK 293T IKZF2-mNeonGreen reporter
# Text: Polycistronic plasmids were constructed for the mammalian expression of fluorescent reporter fusions of human transcription factors IKZF1 (Ikaros), IKZF2 (Helios), and IKZF3 (Aiolos). The respective protein sequences had their C-terminal end joined to a GGGGS linker repeated three times followed by mNeonGreen, P2A sequence, and mScarlet. The DNA sequences of the open reading frames are as follows:
# IKZF1, IKZF2, and IKZF3 constructs were cloned into the UCOE Hygromycin expression vectors (Millipore Sigma). Reporter constructs were transfected using cationic lipid reagents into adherent HEK 293T cells and stable integrants were selected by treatment with 200 μg/mL hygromycin B. Clonal populations were obtained from the population of stable integrants either by limiting dilution or fluorescence activated cell sorting.
# The clonal stable cell lines were maintained under constant 200 μg/mL hygromycin B selection while being passaged for use in the degradation assays. […] The fluorescence intensity of the IKZF1/2/3-mNeonGreen (FITC channel) and mScarlet (PE channel) reporters were routinely analyzed by flow cytometry to confirm consistent expression levels between experiments.
# The IKZF1/IKZF2/IKZF3 degradation assays were carried out by harvesting the HEK 293T reporter cell lines and resuspending the cells in media formulated for reduced background fluorescence (FluoroBrite; Thermo Fisher). The respective cell lines were seeded at a density of 4000 cells/well into black-walled 384-well optical grade assay tissue culture plates. The cells were incubated overnight at 37° C. to allow for attachment to the assay plate. Dilutions of the compounds were prepared in DMSO from 10 mM compound stocks. The assay plates were treated with appropriate concentrations of the compounds by dispensing the DMSO dilutions in quadruplicate wells with an upper limit of 0.5% final DMSO.
# After 24 hour incubation with the compounds, the assay plates were imaged on an ImageXpress Pico microscopy system (cells maintained at 37° C. during imaging) to obtain the fluorescent readouts. The assay plates were imaged in the FITC and Tetramethylrhodamine (TRITC) channels to obtain the mNeonGreen fluorescence intensity (reporter degradation data) and mScarlet fluorescence intensity (for cell segmentation). 293T-IKZF1 and 293T-IKZF3 reporter cell lines were imaged with exposures of 500 milliseconds (ms) for both FITC and TRITC channels, while the 293T-IKZF2 reporter cell line was imaged with exposures of 1000 ms for FITC and 1250 ms for TRITC. The resulting data was analyzed with Cell Reporter Xpress software using the 2-channel cell scoring analysis with a “percent positive” readout. The TRITC channel was selected for the “nuclei” segmentation with a threshold of 20 while the FITC channel was selected for the “Marker 1” segmentation and a threshold of 100 for the IKZF1 and IKZF3 reporter lines. […] The minimum segmentation width was set to 6 micrometers and the maximum segmentation width was set to 15 micrometers for all cell lines. The DCs calculations were determined by regression to best fit four-parameter logistic curves using GraphPad Prism.
# Chain of human E3 ligase component cereblon (CRBN) (Q96SW2 whole entry): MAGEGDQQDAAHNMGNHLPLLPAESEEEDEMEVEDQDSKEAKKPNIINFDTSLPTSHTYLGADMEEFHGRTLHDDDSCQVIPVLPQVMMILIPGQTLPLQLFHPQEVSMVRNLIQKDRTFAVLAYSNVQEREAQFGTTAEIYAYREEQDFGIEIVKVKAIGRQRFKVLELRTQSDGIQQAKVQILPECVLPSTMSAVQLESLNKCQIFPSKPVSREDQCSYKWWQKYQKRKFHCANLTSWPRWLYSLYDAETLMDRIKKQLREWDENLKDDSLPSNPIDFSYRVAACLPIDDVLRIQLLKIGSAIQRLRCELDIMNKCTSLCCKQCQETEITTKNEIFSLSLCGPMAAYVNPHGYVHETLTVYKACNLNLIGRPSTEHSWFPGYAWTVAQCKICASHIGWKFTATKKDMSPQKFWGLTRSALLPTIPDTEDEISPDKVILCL
# Chain of human E3 ligase component cereblon (CRBN) (Q16531 whole entry partner): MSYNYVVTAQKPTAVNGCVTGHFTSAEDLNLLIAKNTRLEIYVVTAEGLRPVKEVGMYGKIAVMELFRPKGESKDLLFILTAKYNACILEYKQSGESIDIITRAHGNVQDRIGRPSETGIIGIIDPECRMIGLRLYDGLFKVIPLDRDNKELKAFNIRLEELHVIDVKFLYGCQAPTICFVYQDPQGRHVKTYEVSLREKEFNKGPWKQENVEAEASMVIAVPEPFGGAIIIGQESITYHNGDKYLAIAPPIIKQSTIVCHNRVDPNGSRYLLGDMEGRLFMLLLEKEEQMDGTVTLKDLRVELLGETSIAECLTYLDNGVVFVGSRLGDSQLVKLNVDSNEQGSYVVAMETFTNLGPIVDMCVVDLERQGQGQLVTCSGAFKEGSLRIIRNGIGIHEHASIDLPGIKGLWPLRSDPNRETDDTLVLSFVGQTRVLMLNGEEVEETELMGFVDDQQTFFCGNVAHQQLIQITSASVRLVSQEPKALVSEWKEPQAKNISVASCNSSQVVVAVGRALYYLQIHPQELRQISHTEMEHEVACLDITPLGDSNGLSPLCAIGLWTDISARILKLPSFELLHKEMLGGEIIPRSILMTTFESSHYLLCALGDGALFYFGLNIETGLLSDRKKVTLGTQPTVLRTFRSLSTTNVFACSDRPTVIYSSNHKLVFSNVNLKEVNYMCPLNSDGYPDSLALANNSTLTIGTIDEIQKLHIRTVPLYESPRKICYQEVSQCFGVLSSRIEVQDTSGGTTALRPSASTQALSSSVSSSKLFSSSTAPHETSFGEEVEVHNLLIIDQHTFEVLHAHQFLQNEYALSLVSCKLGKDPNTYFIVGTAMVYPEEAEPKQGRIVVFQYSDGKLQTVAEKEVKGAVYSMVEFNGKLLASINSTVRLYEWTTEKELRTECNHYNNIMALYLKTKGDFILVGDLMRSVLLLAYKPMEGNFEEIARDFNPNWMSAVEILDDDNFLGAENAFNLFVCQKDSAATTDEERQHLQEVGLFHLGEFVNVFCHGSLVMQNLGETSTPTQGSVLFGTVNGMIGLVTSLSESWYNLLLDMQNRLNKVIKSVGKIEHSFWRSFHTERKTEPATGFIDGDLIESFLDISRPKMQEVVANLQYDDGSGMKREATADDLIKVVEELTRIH
EC50 [1] [µM],Structure (SMILES),IKZF2 % Degradation @ 1 μM (IKZF2 (Helios)) [%]
> 10,"N#Cc1ccc(C2CN([C@H]3CCCC[C@@H]3Oc3ccc4c(c3)CN(C35CC(C3)C(=O)NC5=O)C4=O)C2)cc1 (racemic) [Compound 93, Rac-4-(1-((trans)-2-((2-(2,4-dioxo-3-azabicyclo[3.1.1]heptan-1-yl)-1-oxoisoindolin-5-yl)oxy)cyclohexyl)azetidin-3-yl)benzonitrile]",
> 10,"O=C1NC(=O)C2(N3Cc4cc(O[C@H]5CCCC[C@@H]5N5CCC(c6ccccc6)C5)ccc4C3=O)CC1C2 (stereo partly drawn) [Compound 106, 1-(1-oxo-5-(((1S,2S)-2-(3-phenylpyrrolidin-1-yl)cyclohexyl)oxy)isoindolin-2-yl)-3-azabicyclo[3.1.1]heptane-2,4-dione]",
> 10,"N#Cc1ccc(C2CN([C@H]3CCCC[C@H]3Oc3ccc4c(c3)CN(C35CC(C3)C(=O)NC5=O)C4=O)C2)cc1 (racemic) [Compound 92, Rac-4-(1-((cis)-2-((2-(2,4-dioxo-3-azabicyclo[3.1.1]heptan-1-yl)-1-oxoisoindolin-5-yl)oxy)cyclohexyl)azetidin-3-yl)benzonitrile]",
> 10,"O=C1NC(=O)C2(N3Cc4cc(O[C@H]5CCC[C@@H]5N5CC(c6ccccc6)C5)ccc4C3=O)CC1C2 [Compound 105, 1-(1-oxo-5-(((1S,2S)-2-(3-phenylazetidin-1-yl)cyclopentyl)oxy)isoindolin-2-yl)-3-azabicyclo[3.1.1]heptane-2,4-dione]",
0.921,"O=C1NC(=O)C2(N3Cc4cc(O[C@H]5CCC[C@@H]5N5CC(c6ccccc6Cl)C5)ccc4C3=O)CC1C2 [Compound 82, 1-(5-(((1S,2S)-2-(3-(2-chlorophenyl)azetidin-1-yl)cyclopentyl)oxy)-1-oxoisoindolin-2-yl)-3-azabicyclo[3.1.1]heptane-2,4-dione]",
> 10,"N#Cc1cccc(C2CN([C@H]3CCCC[C@@H]3Oc3ccc4c(c3)CN(C35CC(C3)C(=O)NC5=O)C4=O)C2)c1 (racemic) [Compound 78, Rac-3-(1-((trans)-2-((2-(2,4-dioxo-3-azabicyclo[3.1.1]heptan-1-yl)-1-oxoisoindolin-5-yl)oxy)cyclohexyl)azetidin-3-yl)benzonitrile]",
> 10,"N#Cc1ccc(C2CN([C@H]3CCCC[C@@H]3Oc3ccc4c(c3)CN(C35CC(C3)C(=O)NC5=O)C4=O)C2)c(F)c1 (racemic) [Compound 91, Rac-4-(1-((trans)-2-((2-(2,4-dioxo-3-azabicyclo[3.1.1]heptan-1-yl)-1-oxoisoindolin-5-yl)oxy)cyclohexyl)azetidin-3-yl)-3-fluorobenzonitrile]",
0.024,"N#Cc1cc(F)ccc1C1CN([C@H]2CCCC[C@H]2Oc2ccc3c(c2)CN(C2CCC(=O)NC2=O)C3=O)C1 (mixture of isomers) [Compound 102, Rac-2-(1-((cis)-2-((2-(2,6-dioxopiperidin-3-yl)-1-oxoisoindolin-5-yl)oxy)cyclohexyl)azetidin-3-yl)-5-fluorobenzonitrile]",
> 10,"N#Cc1ccccc1C1CN([C@H]2CCCC[C@@H]2Oc2ccc3c(c2)CN(C24CC(C2)C(=O)NC4=O)C3=O)C1 (racemic) [Compound 95, Rac-2-(1-((trans)-2-((2-(2,4-dioxo-3-azabicyclo[3.1.1]heptan-1-yl)-1-oxoisoindolin-5-yl)oxy)cyclohexyl)azetidin-3-yl)benzonitrile]",
> 10,"O=C1NC(=O)C2(N3Cc4cc(O[C@H]5CCCC[C@@H]5N5CC(c6ccc(F)cc6Cl)C5)ccc4C3=O)CC1C2 [Compound 85, 1-(5-(((1S,2S)-2-(3-(2-chloro-4-fluorophenyl)azetidin-1-yl)cyclohexyl)oxy)-1-oxoisoindolin-2-yl)-3-azabicyclo[3.1.1]heptane-2,4-dione]",
> 10,"N#Cc1ccc(C2CN([C@H]3CCCC[C@H]3Oc3ccc4c(c3)CN(C35CC(C3)C(=O)NC5=O)C4=O)C2)c(F)c1 (racemic) [Compound 90, Rac-4-(1-((cis)-2-((2-(2,4-dioxo-3-azabicyclo[3.1.1]heptan-1-yl)-1-oxoisoindolin-5-yl)oxy)cyclohexyl)azetidin-3-yl)-3-fluorobenzonitrile]",
> 10,"N#Cc1cccc(C2CN([C@H]3CCCC[C@H]3Oc3ccc4c(c3)CN(C35CC(C3)C(=O)NC5=O)C4=O)C2)c1 (racemic) [Compound 77, Rac-3-(1-((cis)-2-((2-(2,4-dioxo-3-azabicyclo[3.1.1]heptan-1-yl)-1-oxoisoindolin-5-yl)oxy)cyclohexyl)azetidin-3-yl)benzonitrile]",
,"O=C1CCC(N2Cc3cc(O[C@H]4CCC[C@@H]4N4CC(c5ccc(F)cc5Cl)C4)ccc3C2=O)C(=O)N1 (stereo partly drawn) [Compound 104, 3-(5-(((1S,2S)-2-(3-(2-chloro-4-fluorophenyl)azetidin-1-yl)cyclopentyl)oxy)-1-oxoisoindolin-2-yl)piperidine-2,6-dione]",71.2
> 10,"N#Cc1cc(F)ccc1C1CN([C@@H]2CCC[C@@H]2Oc2ccc3c(c2)CN(C24CC(C2)C(=O)NC4=O)C3=O)C1 (racemic) [Compound 70, Rac-2-(1-((cis)-2-((2-(2,4-dioxo-3-azabicyclo[3.1.1]heptan-1-yl)-1-oxoisoindolin-5-yl)oxy)cyclopentyl)azetidin-3-yl)-5-fluorobenzonitrile]",
,"O=C1CCC(N2Cc3cc(O[C@H]4CCC[C@@H]4N4CC(c5cccc(F)c5)C4)ccc3C2=O)C(=O)N1 (stereo partly drawn) [Compound 88, 3-(5-(((1S,2S)-2-(3-(3-fluorophenyl)azetidin-1-yl)cyclopentyl)oxy)-1-oxoisoindolin-2-yl)piperidine-2,6-dione]",71.4
,"O=C1CCC(N2Cc3cc(O[C@H]4CCCC[C@@H]4N4CC(c5ccc(F)cc5Cl)C4)ccc3C2=O)C(=O)N1 (stereo partly drawn) [Compound 103, 3-(5-(((1S,2S)-2-(3-(2-chloro-4-fluorophenyl)azetidin-1-yl)cyclohexyl)oxy)-1-oxoisoindolin-2-yl)piperidine-2,6-dione]",73.4
> 10,"N#Cc1ccccc1C1CN([C@H]2CCCC[C@H]2Oc2ccc3c(c2)CN(C24CC(C2)C(=O)NC4=O)C3=O)C1 (racemic) [Compound 94, Rac-2-(1-((cis)-2-((2-(2,4-dioxo-3-azabicyclo[3.1.1]heptan-1-yl)-1-oxoisoindolin-5-yl)oxy)cyclohexyl)azetidin-3-yl)benzonitrile]",
